Here are results for 18 molecules from US7371874B2, “6-Alkylamino-2-methyl-2′-(N-methyl substituted sulfonamido)methyl-2H-1-benzopyran derivative as anti-inflammatory inhibitor” (Korea Research Institute of Chemical Technology, priority 2005, dated 2008).

In one assay the target is T1, 5-LO (Homo sapiens, UniProt P09917).
T1 construct: made in house; host or cells: insect cells (crude lysate)
T1 sequence (P09917 1-674): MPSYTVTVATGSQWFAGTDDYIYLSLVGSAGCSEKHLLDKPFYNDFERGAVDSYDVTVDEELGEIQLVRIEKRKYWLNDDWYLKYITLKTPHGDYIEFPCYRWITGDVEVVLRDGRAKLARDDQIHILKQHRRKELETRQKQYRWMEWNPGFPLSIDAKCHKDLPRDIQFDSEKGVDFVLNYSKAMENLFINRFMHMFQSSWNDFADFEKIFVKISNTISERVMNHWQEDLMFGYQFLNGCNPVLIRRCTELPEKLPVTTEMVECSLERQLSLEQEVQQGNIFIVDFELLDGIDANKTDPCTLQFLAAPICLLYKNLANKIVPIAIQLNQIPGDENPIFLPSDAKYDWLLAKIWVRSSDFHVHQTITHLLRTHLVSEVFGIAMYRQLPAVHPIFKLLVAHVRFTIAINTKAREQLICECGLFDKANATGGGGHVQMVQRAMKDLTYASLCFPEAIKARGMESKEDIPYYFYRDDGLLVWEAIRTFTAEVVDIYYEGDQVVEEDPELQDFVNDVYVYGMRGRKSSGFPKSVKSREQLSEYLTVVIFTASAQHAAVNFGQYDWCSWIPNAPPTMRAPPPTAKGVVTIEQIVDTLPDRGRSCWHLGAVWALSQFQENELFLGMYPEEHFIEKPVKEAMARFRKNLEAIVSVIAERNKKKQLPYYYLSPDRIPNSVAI
The experiment in a line: 5-Lipoxygenase enzyme assay, bioassay using FOX reagent. As to conditions: test compound 1 μM; lysate from 5-LO expressed insect cells; arachidonic acid 40 μM. In kind it is biochemical. On the procedure: 1. 5-Lipoxygenase enzyme assay
1) Bioassay Using FOX Reagent
Each test compound (final concentration=1 μM) was added to a lysate (7 μg) obtained from 5-LO expressed insect cells and reaction was performed at room temperature for 3 minutes. Then, arachidonic acid (40 μM) was added as enzyme substrate and reaction was further performed at room temperature for 4 minutes. 100 μL of a FOX reagent (sulfuric acid 25 mM, xylenol orange 100 μM, FeSO4 100 μM, methanol/water=9:1) was added thereto and then, after 5 minutes, absorbance was measured at 575 nm.

Assay [1] concerns LTB4 in Rat basophilic leukemia (RBL-1) cells. The assay is described as follows: LTB4 cell-based assay (RBL-1 cells, A23187, ELISA). The following applies: A23187 10 μM, LTB4 by ELISA. On the procedure:
Rat basophilic leukemia (RBL-1) cells were inoculated at a 24-well plate to a final concentration of 7.5×10^5 cells/well and incubated for 2 hours, so that they adhered to the bottom of the plate. […] The well plate was centrifuged at 1,500 g for 20 minutes to isolate the supernatant and then the amount of LTB4 of the supernatant was measured with ELISA analysis.

For a further assay, the system named is Mouse ear edema. The assay is described as follows: In vivo bioassay (mouse ear edema model, arachidonic acid). Also noted: species or system ICR mouse. The following applies: oral in 0.5% methylcellulose 1 hour before arachidonic acid, compared with control; for Mouse ear edema model (in vivo assay): Thickness: ear thickness after 1 hour; for Mouse ear edema model (in vivo assay): MPO: myeloperoxidase activity of ear tissue. As to the method:
3. In Vivo Bioassay (Mouse Ear Edema Model)
The inside of the right ear of an ICR mouse (6 weeks old) was treated with 2 mg of arachidonic acid dissolved in 20 μL of acetone for 1 hour to induce an inflammation.
After 1 hour, the difference of thickness T (%) between the arachidonic acid-treated right ear and the non-treated left ear was measured with a microgauge.
Further, myeloperoxidase (MPO) activity was measured in order to measure the amount of neutrophil penetrated into the tissue as a primary marker for induced inflammation. The tissue obtained from the arachidonic acid-treated right ear was homogenized in a 50 mM phosphate buffer solution (pH 6.0) containing 0.5% hexadecyltrimethylammonium bromide (HTAB), centrifuged and then the MPO activity (MPO %) of the supernatant was measured.
To measure in vivo activity of each test compound, each compound was dissolved in 0.5% methylcellulose (10 mL/kg) and orally administered to a mouse 1 hour before treatment with arachidonic acid. Then, arachidonic acid was treated for 1 hour and the thickness of ear and MPO activity were measured. In vivo activity of each test compound was estimated by comparing the test result with that of a control which was treated only with arachidonic acid, without the test compound.

`Cc1cc2c(cc1NCc1ccc(C#N)cc1)C=CC(C)(CN(C)S(=O)(=O)c1ccccc1)O2` (centres unmarked) [1-2-7]: the “5-LO enzyme assay (% inhibition, at 1 μM)” value at 5-LO came out at 79%. Also, in assay [1], the “Cell-based assay (% inhibition, at 1 μM)” value amounted to 61%.
The matching figures for `COc1ccc(CNc2ccc3c(c2)C=CC(C)(CN(C)S(=O)(=O)c2ccc(Cl)cc2)O3)cc1` (centres unmarked) [1-1-217]: 70% and 56%.
The matching figures for `CN(CC1(C)C=Cc2cc(NCc3cccc(F)c3)ccc2O1)S(=O)(=O)c1ccccc1` (centres unmarked) [1-1-11]: 73% and 58%.
Take `CN(CC1(C)C=Cc2cc(NCc3ccc(F)cc3)ccc2O1)S(=O)(=O)c1ccccc1` (centres unmarked) [1-1-10]: the “5-LO enzyme assay (% inhibition, at 1 μM)” value at 5-LO is reported as 87%. In addition, the “Cell-based assay (% inhibition, at 1 μM)” value in assay [1] was found to be 81%. In the assay with Mouse ear edema, the “Mouse ear edema model (in vivo assay): Thickness” value (from here on “Mouse ear edema model … Thickness”) is listed as “Thickness 60%” and the “Mouse ear edema model (in vivo assay): MPO” value (“Mouse ear edema model … MPO” below) is recorded as “MPO 27%”.
As to `Cc1ccc(CNc2ccc3c(c2)C=CC(C)(CN(C)S(=O)(=O)c2ccc(F)cc2)O3)s1` (centres unmarked) [1-1-256], the “5-LO enzyme assay (% inhibition, at 1 μM)” value on 5-LO amounted to 79%. Moreover, the “Cell-based assay (% inhibition, at 1 μM)” value in assay [1] worked out at 63%.
In the case of `CN(CC1(C)C=Cc2cc(NCc3ccsc3)ccc2O1)S(=O)(=O)c1ccccc1` (centres unmarked) [1-1-24], at 1 µM the inhibition against 5-LO was 44%.
As to `COc1ccc(S(=O)(=O)N(C)CC2(C)C=Cc3cc(NCc4ccc(C)s4)ccc3O2)cc1` (centres unmarked) [1-1-40], the “5-LO enzyme assay (% inhibition, at 1 μM)” value at 5-LO was 45%. In addition, the “Cell-based assay (% inhibition, at 1 μM)” value in assay [1] was 38%.
The matching figures for `CCOC(OCC)c1ccc(CNc2ccc3c(c2)C=CC(C)(CN(C)S(=O)(=O)c2ccc(C)cc2)O3)cc1` (centres unmarked) [1-1-103]: 63% and 52%.
For the molecule `COc1ccc(CNc2ccc3c(c2)C=CC(C)(CN(C)S(=O)(=O)c2ccc(F)cc2)O3)cc1` (centres unmarked) [1-1-244], the “5-LO enzyme assay (% inhibition, at 1 μM)” value on 5-LO is reported as 67%. For the same molecule, the “Cell-based assay (% inhibition, at 1 μM)” value in assay [1] is recorded as 41%.
The matching figures for `CN(CC1(C)C=Cc2cc(NCc3ccsc3)ccc2O1)S(=O)(=O)c1ccc(C(C)(C)C)cc1` (centres unmarked) [1-1-132]: 47% and 35%.
With `CC(c1cc2ccccc2s1)N(O)C(N)=O` (centres unmarked) [reference compound], in the assay with Mouse ear edema, the “Mouse ear edema model … Thickness” value was 67% and the “Mouse ear edema model … MPO” value was found to be 38%.
For the molecule `CN(CC1(C)C=Cc2cc(NCc3ccc(C#N)cc3)ccc2O1)S(=O)(=O)c1ccccc1` (centres unmarked) [1-1-7], the “5-LO enzyme assay (% inhibition, at 1 μM)” value at 5-LO is recorded as 80%. In assay [1], the “Cell-based assay (% inhibition, at 1 μM)” value came to 71%.
The matching figures for `Cc1cc2c(cc1NCc1cccs1)C=CC(C)(CN(C)S(=O)(=O)c1ccccc1)O2` (centres unmarked) [1-2-23]: 80% and 74%.
Consider `CN(CC1(C)C=Cc2cc(NCc3ccncc3)ccc2O1)S(=O)(=O)Cc1ccccc1` (centres unmarked) [1-1-183], for which, on 5-LO, at 1 µM the inhibition was 45%.
For `CCCS(=O)(=O)N(C)CC1(C)C=Cc2cc(NCc3ccc(OC)cc3)ccc2O1` (centres unmarked) [1-1-298], the “5-LO enzyme assay (% inhibition, at 1 μM)” value on 5-LO is listed as 73%. The “Cell-based assay (% inhibition, at 1 μM)” value in assay [1] is given as 47%.
In the case of `COc1ccc(CNc2ccc3c(c2)C=CC(C)(CN(C)S(=O)(=O)c2ccccc2)O3)cc1` (centres unmarked) [1-1-1], at 5-LO, the “5-LO enzyme assay (% inhibition, at 1 μM)” value stood at 86%. Moreover, the “Cell-based assay (% inhibition, at 1 μM)” value in assay [1] worked out at 82%. In addition, in the assay on Mouse ear edema, the “Mouse ear edema model … Thickness” value is recorded as “Thickness 62%” and the “Mouse ear edema model … MPO” value is given as “MPO 34%”.
Regarding `COc1ccc(S(=O)(=O)N(C)CC2(C)C=Cc3cc(NCc4ccsc4)ccc3O2)cc1` (centres unmarked) [1-1-51], the “5-LO enzyme assay (% inhibition, at 1 μM)” value on 5-LO stood at 48%. The “Cell-based assay (% inhibition, at 1 μM)” value in assay [1] is on record as 36%.
Consider `COc1ccc(CNc2ccc3c(c2)C=CC(C)(CN(C)S(=O)(=O)Cc2ccccc2)O3)cc1` (centres unmarked) [1-1-163], for which, on 5-LO, the “5-LO enzyme assay (% inhibition, at 1 μM)” value is recorded as 61%. Moreover, the “Cell-based assay (% inhibition, at 1 μM)” value in assay [1] is 43%.
